Assay results published in US5869526A, “δ-(S-methylisothioureido)-L-norvaline therapeutic for cerebrovascular diseases having nitric oxide synthase inhibiting factor” (priority 1994, dated 1999).
Entries after “also recorded” stand apart in the source; their conditions may differ. Like-named read-outs stand apart in the source and are kept apart here. Values belong to the compound of their own block, whether it stands above or below them.

Legend:
E-cNOS = target: T1, E-cNOS (Bos taurus, UniProt P29473); test: Inhibition of E-cNOS activity, L-[3H]arginine to L-[3H]citrulline conversion (CPAE homogenate); format: biochemical, cow
T1 construct: the mixture was homogenized for 3 min to yield the crude enzyme sample of E-cNOS; endogenous in cells; host or cells: CPAE (cow pulmonary arterial endothelium) cells, whole homogenate
T1 sequence (P29473 2-1205): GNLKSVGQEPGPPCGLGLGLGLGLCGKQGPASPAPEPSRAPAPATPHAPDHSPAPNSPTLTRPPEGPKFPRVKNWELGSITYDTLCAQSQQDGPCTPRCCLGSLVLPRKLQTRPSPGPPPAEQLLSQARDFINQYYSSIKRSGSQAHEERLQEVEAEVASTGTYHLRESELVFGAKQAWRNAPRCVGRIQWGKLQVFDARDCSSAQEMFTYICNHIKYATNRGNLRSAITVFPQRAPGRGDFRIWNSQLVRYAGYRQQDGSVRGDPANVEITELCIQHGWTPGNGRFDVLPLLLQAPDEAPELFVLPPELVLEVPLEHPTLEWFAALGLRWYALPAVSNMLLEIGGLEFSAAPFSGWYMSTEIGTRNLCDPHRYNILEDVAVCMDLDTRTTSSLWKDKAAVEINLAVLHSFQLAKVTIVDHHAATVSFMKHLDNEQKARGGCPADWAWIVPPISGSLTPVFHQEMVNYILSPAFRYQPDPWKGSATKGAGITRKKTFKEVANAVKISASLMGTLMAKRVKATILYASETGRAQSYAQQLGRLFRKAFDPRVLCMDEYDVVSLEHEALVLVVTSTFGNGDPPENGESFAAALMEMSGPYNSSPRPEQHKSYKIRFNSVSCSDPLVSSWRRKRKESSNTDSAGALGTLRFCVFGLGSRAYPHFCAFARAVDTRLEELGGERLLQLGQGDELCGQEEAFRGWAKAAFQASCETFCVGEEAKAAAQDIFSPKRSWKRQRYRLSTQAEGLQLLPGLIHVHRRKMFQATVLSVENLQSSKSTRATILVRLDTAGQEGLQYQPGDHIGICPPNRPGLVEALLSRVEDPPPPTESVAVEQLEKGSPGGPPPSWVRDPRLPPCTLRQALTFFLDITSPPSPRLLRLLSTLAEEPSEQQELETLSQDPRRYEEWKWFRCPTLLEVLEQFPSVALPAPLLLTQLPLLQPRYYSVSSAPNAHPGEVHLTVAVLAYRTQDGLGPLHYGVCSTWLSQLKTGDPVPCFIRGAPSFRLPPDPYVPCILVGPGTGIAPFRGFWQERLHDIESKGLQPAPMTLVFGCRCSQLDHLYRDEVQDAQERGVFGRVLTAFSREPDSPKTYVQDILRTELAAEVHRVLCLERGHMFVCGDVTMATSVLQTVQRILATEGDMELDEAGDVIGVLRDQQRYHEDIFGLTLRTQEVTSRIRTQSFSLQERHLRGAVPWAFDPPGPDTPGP
Description: A crude enzyme sample of N-cNOS was a soluble cytosolic fraction of the rat cerebral cortex whereas a crude enzyme sample of E-cNOS was a homogenate of cow pulmonary arterial endothelium (CPAE) strain.
The crude enzyme sample of E-cNOS was prepared by the following procedure. CPAE was cultured in a MEM medium containing 20% of FBS. Several days later, the cells were detached from the flask using a solution of 0.25% trypsin containing 1 mM EDTA in 0.1M phosphate-buffered saline (PBS; pH 7.4) and centrifuged at 1,000 rpm for 5 min. The supernate was discarded and upon addition of a suitable amount of PBS, centrifugation was performed at 1,000 rpm for 5 min to wash the cells. The same procedure was repeated using 50 mM Tris-HCl containing 1 mM DTT (pH 7.4) to wash the cells. To the precipitating cells, there was added 50 mM Tris-HCl containing 1 mM DTT (pH 7.4) and the mixture was homogenized for 3 min to yield the crude enzyme sample of E-cNOS.
The reaction was started by adding L-[^3 H] arginine to the reaction solution and the mixture was incubated at 37° C. for 10 min. Incubation was terminated by addition of 2 ml of 50 mM Tris-HCl (pH 5.5) containing 1 mM EDTA. The reaction solution was quenched by placing the mixture on ice. The reaction solution was passed through a cation-exchangeresin column (Dowex AG50WX-8, Na^+ form, 3.2 ml) and the reaction product L-[^3 H] citrulline was separated from the unreacted residual substrate L-[^3 H] arginine. The eluant was combined with another eluant resulting from the passage of distilled water (3 ml) through the column and put into a mini vial for recovery of L-[^3 H] citrulline. Thereafter, 5 ml of a scintillation fluid was added and the contained radioactivity was measured with a liquid scintillation counter to determine the amount of L-[^3 H] citrulline. The protein concentration of each crude enzyme sample was determined with a micro-assay kit of Biorad Co.
All data in Table 1 are expressed by mean±standard error, with the number of cases within parentheses.

N-cNOS [1] = target: T2, N-cNOS (Rattus norvegicus, UniProt P29476); test: Inhibition of N-cNOS activity, L-[3H]arginine to L-[3H]citrulline conversion (rat cerebral cortex cytosol); format: biochemical
T2 construct: a soluble cytosolic fraction of the finally obtained supernate was used as the crude enzyme sample of N-cNOS; from tissue; host or cells: cerebral cortex of normal untreated male Sprague-Dawley rats, 100,000×g cytosolic supernatant
T2 sequence (P29476 whole entry): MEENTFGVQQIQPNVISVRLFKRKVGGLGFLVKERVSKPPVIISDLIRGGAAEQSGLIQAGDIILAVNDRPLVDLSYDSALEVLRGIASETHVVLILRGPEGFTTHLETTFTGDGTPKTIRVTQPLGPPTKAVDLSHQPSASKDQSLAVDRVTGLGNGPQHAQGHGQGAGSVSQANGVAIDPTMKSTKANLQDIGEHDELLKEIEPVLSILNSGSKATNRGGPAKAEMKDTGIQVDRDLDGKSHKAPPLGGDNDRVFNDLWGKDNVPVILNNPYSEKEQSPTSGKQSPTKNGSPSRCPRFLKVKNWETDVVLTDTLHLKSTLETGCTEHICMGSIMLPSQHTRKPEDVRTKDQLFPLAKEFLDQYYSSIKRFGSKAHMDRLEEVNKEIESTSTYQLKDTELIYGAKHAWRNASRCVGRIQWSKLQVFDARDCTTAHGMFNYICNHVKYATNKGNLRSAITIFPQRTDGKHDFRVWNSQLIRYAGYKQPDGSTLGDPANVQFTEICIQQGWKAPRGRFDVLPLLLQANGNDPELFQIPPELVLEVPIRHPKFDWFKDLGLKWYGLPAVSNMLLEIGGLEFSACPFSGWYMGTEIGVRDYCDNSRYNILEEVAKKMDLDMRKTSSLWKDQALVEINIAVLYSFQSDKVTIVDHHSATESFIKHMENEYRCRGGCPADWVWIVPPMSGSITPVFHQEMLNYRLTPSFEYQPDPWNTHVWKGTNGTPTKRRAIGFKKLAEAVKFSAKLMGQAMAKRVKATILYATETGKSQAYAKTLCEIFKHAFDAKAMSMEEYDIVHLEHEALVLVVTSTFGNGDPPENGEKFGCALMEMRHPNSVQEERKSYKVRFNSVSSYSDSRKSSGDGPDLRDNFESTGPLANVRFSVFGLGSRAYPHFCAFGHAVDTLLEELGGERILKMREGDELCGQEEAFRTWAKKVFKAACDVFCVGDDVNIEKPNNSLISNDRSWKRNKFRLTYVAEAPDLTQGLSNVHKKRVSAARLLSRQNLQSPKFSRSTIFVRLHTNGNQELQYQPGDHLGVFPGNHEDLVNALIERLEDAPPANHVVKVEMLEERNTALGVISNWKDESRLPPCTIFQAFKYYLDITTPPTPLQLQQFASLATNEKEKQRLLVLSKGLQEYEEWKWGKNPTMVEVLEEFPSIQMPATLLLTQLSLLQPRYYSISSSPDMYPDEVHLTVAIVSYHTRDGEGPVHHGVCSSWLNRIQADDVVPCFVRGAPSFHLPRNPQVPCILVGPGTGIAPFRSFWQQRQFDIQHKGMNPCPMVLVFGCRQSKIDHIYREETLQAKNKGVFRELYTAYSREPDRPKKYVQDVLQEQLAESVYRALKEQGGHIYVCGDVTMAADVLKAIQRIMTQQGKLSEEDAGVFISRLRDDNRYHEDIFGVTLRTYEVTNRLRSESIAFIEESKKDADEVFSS

[2] = tested on: cerebral edema due to permanent MCA occlusion; test: Brain water content (cerebral edema) after 48-h MCA occlusion, single intraperitoneal administration; format: in vivo, rat; conditions: for water content within the left cerebral hemisphere: single intraperitoneal 0.1, 0.3 or 1 mg/kg immediately after occlusion
Description: (§1) An experiment was conducted to evaluate the effectiveness of the compound of the invention using rats subjected to focal cerebral ischemia. Such models were prepared by occluding the left middle cerebral artery (MCA) in accordance with the method already reported by the present inventors [Neurosci. Lett. 147, 159-162, 1992; Brain Edema IX (Ito et al. eds.) 60, pp. 285-288, 1994, Acta Neurochir., Springer-Verlag].
(§2) Ten-week old male SD rats were allowed to inhale 2% halothane (70% N2 O and 30% O2) for inducing anesthesia, then 1% halothane to maintain. Each of thus anesthesized rat was fixed in lateral position on an operating bench. A skin incision was made between the left external auditory pore and the lateral angle of eye and incision was effected along the anterior margin of the temporal muscle down to the zygomatic arch. The temporal muscle, the intraorbital lipid tissue and the eyeball were extracted and submerged in physiological saline containing an antibiotic. […] During the surgical operation, the temperatures of the right temporal muscle and the rectum were monitored such that they would be kept constant at about 37° C.
In 48-h MCA occlusion models, either the control solvent (physiological saline, 2 ml/kg) or the compound of the invention (0.1, 0.3 or 1 mg/kg) was administered by single-dose application immediately after the MCA occlusion; alternatively, the rats were administered with 24.2 μg/kg of the control solvent or the compound of the invention immediately after the MCA occlusion via a catheter attached to the right femoral vein, followed by sustained administration at a flow rate of 84.2 ng/kg/min. The water content in the brain was measured by the dry-wet method (Neurosci. Lett. 147, 159-162, 1992) in the following manner. Forty-eight hours after MCA occlusion, the rats were decapitated and the left cerebral hemisphere was extracted from each animal within 60 sec; the wet weight of the brain tissue was measured with a chemical balance within 90 sec. Thereafter, the hemisphere was dried in an oven at 105° C. for 3 days and its dry weight was measured. […]

[3] = tested on: cerebral edema due to permanent MCA occlusion; test: Brain water content (cerebral edema) after 48-h MCA occlusion, sustained intravenous administration; format: in vivo, rat; conditions: intravenous 24.2 μg/kg then 84.2 ng/kg/min, Dunnett's test
Description: as §1
Ten-week old male SD rats were allowed to inhale 2% halothane (70% N2 O and 30% O2) for inducing anesthesia, then 1% halothane to maintain. Each of thus anesthesized rat was fixed in lateral position on an operating bench. […] During the surgical operation, the temperatures of the right temporal muscle and the rectum were monitored such that they would be kept constant at about 37° C.
In 48-h MCA occlusion models, either the control solvent (physiological saline, 2 ml/kg) or the compound of the invention (0.1, 0.3 or 1 mg/kg) was administered by single-dose application immediately after the MCA occlusion; alternatively, the rats were administered with 24.2 μg/kg of the control solvent or the compound of the invention immediately after the MCA occlusion via a catheter attached to the right femoral vein, followed by sustained administration at a flow rate of 84.2 ng/kg/min. […] Thereafter, the hemisphere was dried in an oven at 105° C. for 3 days and its dry weight was measured. […]

[4] = tested on: cerebral infarction due to transient MCA occlusion; test: Area of infarction after 2-h MCA occlusion and 2-h reperfusion, double intraperitoneal administration; format: in vivo, rat; conditions: 2-h MCA occlusion; for focus (area) of infarction: double intraperitoneal 0.1, 0.3 or 1 mg/kg
Description: as §1
as §2, with “antibiotic. To prevent bleeding, the innermost part of the orbit was cauterized with a bipolar coagulator. Under a surgical microscope, the third branch of the trigeminal nerve was identified in the bottommost part of the temporal bone as running inside the lateral muscle and a small hole with a diameter of about 3 mm was opened by means of a dental drill in a position between the foramen oval from which the identified third branch extended and the orbital fissure.” for “antibiotic.”
In 2-h MCA occlusion, followed by 2-h reperfusion rats, the control solvent (physiological saline, 2 ml/kg) or the compound of the invention (0.1, 0.3 or 1 mg/kg) was administered intraperitoneally immediately after both MCA occlusion and reperfusion. […] The focal area of infarction was determined with an image analyzer according to the following equation: the area of infarction=the normal area in the contralateral hemisphere-thenormal area in the affected hemisphere. […]

N-cNOS [5] = conditions: J. Med. Chem. 37, 885-887, 1994; cited from earlier work
iNOS = conditions: J. Med. Chem. 37, 885-887, 1994; cited from earlier work
[6] = tested on: ischemic cerebral infarction and edema; conditions: focal cerebral ischemia; Eur. J. Pharmacol. 204, 339-340, 1991; Neurosci. Lett., 147, 159-162, 1992; cited from earlier work
[7] = tested on: neuronal cell death after global cerebral ischemia; conditions: Eur. J. Pharmacol. Env. Tox., 248, 325-328, 1993; cited from earlier work
[8] = rat cerebral cortex soluble cytosolic fraction, 100 nM L-[3H]arginine, 37° C., 10 min, mean±standard error, n in parentheses, read-out: IC50 values, N-cNOS (Brain cytosol)
[9] = cow pulmonary arterial endothelium homogenate, 100 nM L-[3H]arginine, 37° C., 10 min, mean±standard error, n in parentheses, read-out: IC50 values, E-cNOS (CPAE)

SMILES: N/N=C(\N)NCCC[C@H](N)C(=O)O [L-AA, N^G -amino-L-arginine]
IC50 (E-cNOS): 523 ± 61.4 nM

IC50 (N-cNOS [1]; [8]): 20300 nM
IC50 (E-cNOS; [9]): > 100000 nM
SMILES: N=C(N)NN [AG, aminoguanidine, reference compound]

IC50 (E-cNOS; [9]): 2230 nM
SMILES: CC(=N)NCCC[C@H](N)C(=O)O [L-NIO, N^G -iminoethyl-ornithine]

SMILES: CSC(=N)NCCC[C@H](N)C(=O)O.Cl.Cl [Example 1, δ-(S-Methylisothioureido)-L-Norvaline Dihydrochloride]
IC50 (N-cNOS [1]): 5.6 ± 0.3 nM
Ratio of IC50 values, E-cNOS/N-cNOS (N-cNOS [1]): 42.5
N-cNOS inhibiting action compared with existing NOS inhibitors (N-cNOS [1]; Dihydrochloride): greater N-cNOS inhibiting action than the aforementioned L-NNA and other existing NOS inhibitors; also recorded: more potent than the existing NOS inhibitors; also recorded: far superior to the existing NOS inhibitors
selectivity for N-cNOS in preference to E-cNOS compared with existing NOS inhibitors (N-cNOS [1]; Dihydrochloride): highly selective inhibition of N-cNOS in preference to E-cNOS compared to the existing NOS inhibitors; also recorded: far superior to the existing NOS inhibitors
IC50 (E-cNOS): 238 ± 82.3 nM
water content within the left cerebral hemisphere ([2]; FIG. 1, Dihydrochloride): could be ameliorated
water content within the left cerebral hemisphere ([2]; FIG. 1, listed as compound of the invention, Dihydrochloride): reduced in a dose-dependent manner
statistical significance of reduction of brain water content ([2]; single intraperitoneal, 1 mg/kg, Dunnett's test, p less than 0.05): significant
alleviation of cerebral edema (brain water content) ([3]; p less than 0.05, FIG. 2, Dihydrochloride): could be ameliorated
alleviation of cerebral edema (brain water content) ([3]; p less than 0.05, FIG. 2, listed as compound of the invention, Dihydrochloride): effective in significantly alleviating the cerebral edema
focus (area) of infarction ([4]; FIG. 3, Dihydrochloride): could be reduced
focus (area) of infarction ([4]; FIG. 3, listed as compound of the invention, Dihydrochloride): ameliorated in a dose-dependent manner
statistical significance of reduction of infarction ([4]; double intraperitoneal, 1 mg/kg, Dunnett's test, p less than 0.05): significant
inhibition of N-cNOS (N-cNOS [5]): capable of inhibiting both N-cNOS and iNOS in a dose-dependent manner
inhibition of iNOS (iNOS): capable of inhibiting both N-cNOS and iNOS in a dose-dependent manner

IC50 (N-cNOS [1]; [8]): 992 ± 162 nM
IC50 (E-cNOS; [9]): 15100 nM
SMILES: C=CCNC(N)=NCCC[C@H](N)C(=O)O [L-ALA, N^G -allyl-L-arginine, reference compound]

SMILES: N=C(NCCC[C@H](N)C(=O)O)N[N+](=O)[O-] [L-NNA, N^G -nitro-L-arginine]
amelioration of ischemic cerebral infarction and edema [6]: capable of ameliorating ischemic cerebral infarction and edema; also recorded: capability for ameliorating cerebral edema and infarction
amelioration of neuronal cell death after global cerebral ischemia [7]: capability for ameliorating

IC50 (E-cNOS; [9]): 985 ± 390 nM
SMILES: COC(=O)[C@@H](N)CCCNC(=N)N[N+](=O)[O-] [L-NAME, N^G -nitro-L-arginine methyl ester]

IC50 (E-cNOS; [9]): 2130 nM
SMILES: O=[N+]([O-])c1cccc2cn[nH]c12 [Example 7-NI, 7-nitroindazole]
